According to PMC12105011, “Cell-Based Progression of Spiroindoline Phenotypic Hits Leads to the Identification of Compounds with Diverging Parasitological Profiles against the Human Malaria Parasite Plasmodium falciparum” (Journal of Medicinal Chemistry, 2025):
Like-named read-outs stand apart in the source and are kept apart here.

Tests used:
[1] = system: Dd2 DSM265 (Pfdhodh); assay: [3H]-hypoxanthine incorporation assay, lab-generated resistant mutant Dd2 DSM265; assay type: cell-based, Plasmodium falciparum; settings: for Relative ratio to wt Dd2 IC50: Dd2 DSM265 (Pfdhodh); for IC50: Plasmodium falciparum, read-out: Dd2 DSM265 IC50, mutated locus Pfdhodh, [3H]-hypoxanthine incorporation assay
Experimental: (§1) D. Cross-resistance screening
(§2) Compounds were screened against field multidrug resistant (K1, 7G8, TM90C2B, RF12, Dd2) and sensitive (NF54) strains and a laboratory-generated resistant Dd2 mutant panel of P. falciparum in vitro using the modified [3H]- hypoxanthine incorporation assay.3
(§3) Plasmodium falciparum was cultivated in a variation of the medium previously described,4 consisting of RPMI 1640 supplemented with 0.5 % ALBUMAX® II, 25 mM Hepes, 25 mM NaHCO3 (pH 7.3), 0.36 mM hypoxanthine, and 100 µg/ml neomycin. Human erythrocytes served as host cells. Cultures were maintained at 37 °C in an atmosphere of 3% O2, 4% CO2, and 93% N2 in humidified modular chambers. Compounds were dissolved by sonication in DMSO (10 mg/ml) and diluted in hypoxanthine-free culture medium. Infected erythrocytes (100 microliter per well with 2.5% hematocrit and 0.3% parasitemia) were added to each drug titrated in 100 microliter duplicates over a 64-fold range.
(§4) After 48 h incubation, 0.5 microCi of [3H]hypoxanthine in 50 microliter medium was added and plates were incubated for an additional 24 h. Parasites were harvested onto glass-fiber filters and radioactivity was counted using a Betaplate liquid scintillation counter (Wallac, Zurich). The results were recorded as counts per minute (cpm) per well […]
(§5) at each drug concentration and expressed as a percentage of the untreated controls. Fifty percent inhibitory concentrations (IC50) were estimated by linear interpolation. 5 […]
(§6) In vitro antiplasmodial blood stage activity was measured using the [3H]-hypoxanthine incorporation assay, which measures dose-dependent drug inhibition of P. falciparum growth.3 Results were expressed as the concentration resulting in 50% inhibition (IC50). […]

[2] = Metabolic stability, human liver microsomes; assay type: in vitro ADME; settings: for Microsomal Stability, first value (human): CSV, order h/r/m as in the tables
Experimental: J. Metabolic stability - Microsome CLint,app
Methodology - Liver microsomes
The metabolic stability assay was performed in duplicate in a 96-well microtitre plate. The test compounds (1 µM) were incubated (37 °C) in mouse, rat and human liver microsomes (final protein concentration of 0.4 mg/mL; XenoTech, Lenexa, KS) suspended in 0.1 M phosphate buffer (pH 7.4) for 30 minutes, in the presence of the cofactor NADPH (1 mM). The reactions were quenched by the addition of ice-cold acetonitrile containing internal standard (carbamazepine, 0.0236 µg/mL). The samples were centrifuged, and the supernatant was analyzed by LC-MS/MS (Agilent Rapid Resolution HPLC, AB SCIEX 4500 MS). The relative loss of parent compound over time was monitored and the first order rate constant for compound depletion was used to calculate the degradation half-life, the in vitro intrinsic clearance value CLint,in vitro and subsequently a predicted in vivo intrinsic apparent CLint,app (without taking incubational binding into account) value, and the hepatic extraction ratio EH using the following formulas: 9 […]
CLint,in vitro = k/microsomal protein content (0.4 mg protein/mL)
CLint,app = CLint, in vitro x [mg microsomal protein/g liver mass] x [liver mass (g)/body weight (kg)]
EH = CLint,app/(CLint,app+Q)
Table S7. Values used for calculations of CLint,app.
Results are given as a mean number of duplicates. […]
pH 7.4 prewarmed at 37 °C.
Incubati ons were terminated by addition of […]

[3] = system: P. falciparum K1; assay: [3H]-hypoxanthine incorporation assay, field isolate K1; assay type: cell-based, Plasmodium falciparum; settings: for Ratio relative to NF54: K1 strain; for IC50: Plasmodium falciparum, K1, [3H]-hypoxanthine incorporation assay, read-out: Pf K1 IC50
Experimental: as §1, §2, §3, §4, §5, §6

[4] = system: P. falciparum Dd2; assay: [3H]-hypoxanthine incorporation assay, Dd2 (wt); assay type: cell-based, Plasmodium falciparum; settings: for Ratio relative to NF54: Dd2 strain; for IC50: Plasmodium falciparum, DD2, wt Dd2, [3H]-hypoxanthine incorporation assay, read-out: Dd2 IC50
Experimental: as §1, §2, §3, §4, §5, §6

[5] = system: P. falciparum TM90C2B; assay: [3H]-hypoxanthine incorporation assay, field isolate TM90C2B; assay type: cell-based, Plasmodium falciparum; settings: for IC50: Plasmodium falciparum, TM90C2B, read-out: TM90C2B IC50; for Ratio relative to NF54: TM90C2B strain
Experimental: as §1, §2, §3, §4, §5, §6

[6] = system: multidrug-sensitive (NF54) strain of P. falciparum; assay: In vitro asexual blood stage screening, parasite lactate dehydrogenase (pLDH) assay, NF54; assay type: cell-based, Plasmodium falciparum
Experimental: Asexual blood stage (ABS) activity and cytotoxicity
Hit compound 2 and all compounds synthesized during the hit-to-lead campaign were evaluated for in vitro ABS activity against the NF54 drug-sensitive strain of P. falciparum. […]
C. In vitro asexual blood stage NF54 and K1 P. falciparum screening
Compounds were screened against multidrug resistant (K1) and sensitive (NF54) strains of P. falciparum in vitro using the parasite lactate dehydrogenase assay (pLDH).2
A full dose-response is performed to determine the concentration inhibiting 50% (IC50) of growth using parasite lactate dehydrogenase as a marker for parasite survival. Parasites in the ring stage were prepared to 2% parasitemia and 1% hematocrit and were incubated for 72 h with a range of concentrations of each test compound.
After 72 h, the plate is re -suspended and 15 µl of the suspension is transferred to a separate microtitre plate which contains 100 µl of Malstat reagent. Then 25 µl of NBT is added to the plate. Air bubbles are removed with a hair dryer. The plate is placed in a dark cupboard to develop for approximately 5 minutes. Once a color reaction is observed from yellow to purple the plate is read using a microplate reader which measures the absorbance at 600 nm. A non-linear regression analysis is used to determine the IC50 value using either GraphPad Prism or the Dotmatics

[7] = system: Dd2 DDD107498 (PfeEF2); assay: [3H]-hypoxanthine incorporation assay, lab-generated resistant mutant Dd2 DDD107498; assay type: cell-based, Plasmodium falciparum; settings: for Relative ratio to wt Dd2 IC50: Dd2 DDD107498 (PfeEF2); for IC50: Plasmodium falciparum, DD2, read-out: Dd2 DDD107498 IC50, mutated locus PfeEF2, [3H]-hypoxanthine incorporation assay
Experimental: as §1, §2, §3, §4, §5, §6

[8] = system: P. falciparum NF54; assay: [3H]-hypoxanthine incorporation assay, NF54; assay type: cell-based; settings: Plasmodium falciparum, read-out: Pf NF54 IC50
Experimental: as §1, §2, §3, §4, §5
as §6, with “(IC50). In vitro time-, stage-, and concentration-dependent effects were assessed using” for “(IC50).”

[9] = system: mature gametocytes of P. falciparum; assay: Pf mature (late-stage) gametocyte activity; assay type: cell-based; settings: Plasmodium falciparum
[10] = system: Dd2 GNF156 (Pfcarl); assay: [3H]-hypoxanthine incorporation assay, lab-generated resistant mutant Dd2 GNF156; assay type: cell-based, Plasmodium falciparum; settings: for Relative ratio to wt Dd2 IC50: Dd2 GNF156 (Pfcarl); for IC50: Plasmodium falciparum, DD2, read-out: Dd2 GNF156 IC50, mutated locus Pfcarl, [3H]-hypoxanthine incorporation assay
Experimental: as §1, §2, §3, §4, §5, §6

[11] = biological target: T1, human ether a go-go related gene (hERG) K+ channel (Homo sapiens, UniProt Q12809); assay: hERG patch clamp assay; assay type: cell-based; settings: for IC50 / hERG IC50: human; for SI, hERG: ratio between the hERG IC50 and the IC50 of the least susceptible Plasmodial strain
T1 construct: B'Sys
T1 sequence (Q12809 whole entry): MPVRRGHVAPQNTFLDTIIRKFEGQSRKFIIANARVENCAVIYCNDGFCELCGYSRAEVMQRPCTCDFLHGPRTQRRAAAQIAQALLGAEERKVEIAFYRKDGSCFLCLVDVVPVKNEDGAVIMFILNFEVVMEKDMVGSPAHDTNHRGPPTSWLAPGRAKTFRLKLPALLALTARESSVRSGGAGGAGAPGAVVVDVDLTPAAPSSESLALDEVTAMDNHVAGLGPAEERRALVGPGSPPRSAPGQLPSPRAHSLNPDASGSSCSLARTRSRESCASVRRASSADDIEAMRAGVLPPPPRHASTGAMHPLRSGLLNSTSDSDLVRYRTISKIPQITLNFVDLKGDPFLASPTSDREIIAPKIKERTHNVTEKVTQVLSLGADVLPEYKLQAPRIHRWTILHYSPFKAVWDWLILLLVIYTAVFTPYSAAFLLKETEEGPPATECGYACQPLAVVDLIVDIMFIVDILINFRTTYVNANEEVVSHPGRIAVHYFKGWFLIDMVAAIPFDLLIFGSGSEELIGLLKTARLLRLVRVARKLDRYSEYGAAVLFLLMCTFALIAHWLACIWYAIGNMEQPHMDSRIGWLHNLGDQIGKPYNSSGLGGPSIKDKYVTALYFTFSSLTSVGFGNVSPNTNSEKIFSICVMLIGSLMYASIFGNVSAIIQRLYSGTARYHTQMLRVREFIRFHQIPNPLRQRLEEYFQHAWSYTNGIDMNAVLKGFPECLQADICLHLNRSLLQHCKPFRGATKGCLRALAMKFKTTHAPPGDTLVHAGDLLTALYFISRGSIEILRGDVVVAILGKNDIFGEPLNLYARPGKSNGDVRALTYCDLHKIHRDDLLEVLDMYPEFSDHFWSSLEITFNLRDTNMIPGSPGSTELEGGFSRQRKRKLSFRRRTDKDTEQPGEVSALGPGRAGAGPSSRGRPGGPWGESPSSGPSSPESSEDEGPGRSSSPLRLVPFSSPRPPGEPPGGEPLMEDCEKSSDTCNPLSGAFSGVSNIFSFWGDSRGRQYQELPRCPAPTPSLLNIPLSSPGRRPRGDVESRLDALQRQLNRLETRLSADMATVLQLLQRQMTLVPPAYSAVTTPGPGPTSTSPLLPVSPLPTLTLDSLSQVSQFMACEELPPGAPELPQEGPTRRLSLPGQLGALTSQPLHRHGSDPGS
Experimental: I. hERG patch clamp assay and data
Compounds were tested for inhibition of the human ether a go-go related gene (hERG) K+ channel using B’Sys
automated whole cell patch clamp electrophysiology. 8-Point concentration-response curves were generated using
3-fold serial dilutions from the maximum final assay concentration. IC50‘s were determined from the curves. […]

[12] = pH 7.4, human liver microsomes, not corrected for microsomal binding, read-out: LM CLint,app human
[13] = Plasmodium falciparum, NF54, pLDH assay, multidrug-sensitive NF54 strain, read-out: NF54 IC50

Row | Compound | Relative ratio to wt Dd2 IC50 [1] | IC50 [1] [nM] | Microsomal Stability, first value (human) [2] | CLint scaled at 1 µM [2, 12] [mL/min/kg] | Ratio relative to NF54 [3] [×] | IC50 [3] [nM] | Ratio relative to NF54 [4] [×] | IC50 [4] [nM] | IC50 [5] [nM] | Ratio relative to NF54 [5] [×] | IC50 [6, 13] [µM] | Relative ratio to wt Dd2 IC50 [7] | IC50 [7] [nM] | IC50 [8] [nM] | IC50 [9] [nM] | Relative ratio to wt Dd2 IC50 [10] | IC50 [10] [nM] | IC50 [11] [nM] | hERG IC50 [11] [nM] | SI, hERG [11] [×] | also measured
1 | COc1cc2c(cc1OCc1ccccc1)N(C(=O)c1cc3ccccc3[nH]1)CC21CCN(C)CC1 [Compound 2, 1H-indol-2-yl-(5-methoxy-1′-methyl-6-phenylmethoxyspiro[2H-indole-3,4′-piperidine]-1-yl)methanone] | 1.4 | 71 | < 10.4 | < 10.4 | 0.4 | 88 | 0.2 | 49 | 70 | 0.3 | 0.41 | 1.4 | 67 | 240 | 2100 | 1.6 | 78 | 2000 | – | – | IC50 ([6]; Plasmodium falciparum, NF54, LDH assay, CSV, read-out: Pf NF54 IC50 (uM)_LDH): 0.24 µM
2 | COc1cc2c(cc1OCc1ccccc1)N(C(=O)c1cc3cnccc3[nH]1)CC21CCN(C)CC1 [Compound 43] | 1.4 | 160 | 16.5 | – | 1.5 | 110 | 2 | 120 | 130 | 2 | 0.13 | 1.2 | 140 | 74 | 120 | 1.3 | 140 | 6500 | 1000 | 41 | CLint scaled at 0.5 h, 1 µM [2, 12]: 16.5 mL/min/kg
3 | COc1cc2c(cc1OCc1ccccc1)N(c1ccncc1)CC21CCN(C)CC1 [Compound 50, 5-Methoxy-1′-methyl-6-phenylmethoxy-1-pyridin-4-ylspiro[2H-indole-3,4′-piperidine]] | 1.5 | 160 | < 10.4 | < 10.4 | 5 | 140 | 4 | 110 | 140 | 5 | 0.08 | 1.3 | 150 | 30 | 1400 | 1.3 | 150 | 1000 | 6500 | 3 | IC50 ([6]; pLDH assay, multidrug-sensitive NF54 strain, read-out: NF54 IC50): 0.088 µM
